Literature values in the PKSmart pharmacokinetics tables (Seal et al. 2025).
Where a SMILES comes first, the peptide text is derived from it. [ ]: non-standard residue; d: D form. The star is where a group is joined. ξ: configuration not given here. ξNMe2Val = CC(C)C(C(=O)*)N(C)C; NMeV = CN[CH](C(=O)O)C(C)C; NHtBu = CC(C)(C)N*

Assay: Lombardo, Berellini, Obach 2018, Drug Metab Dispos 46:1466, doi 10.1124/dmd.118.082966
Conditions: human; for MRT / Vd / clearance / half-life: in vivo, iv; for fraction unbound: plasma

Row | SMILES | MRT | Vd | clearance | half-life | fraction unbound
1 | CC[C@]1(O)C[C@@H]2CN(CCc3c([nH]c4ccccc34)[C@@](C(=O)OC)(c3cc4c(cc3OC)N(C=O)[C@H]3[C@@](O)(C(=O)OC)[C@H](OC(C)=O)[C@]5(CC)C=CCN6CC[C@]43[C@@H]65)C2)C1 | 20 h | 2.4 L/kg | 0.12 L/h/kg | 23 h | 
2 | COc1cc2c(cc1OC)CC(=O)N(CCCN(C)C[C@H]1Cc3cc(OC)c(OC)cc31)CC2 | 2.69 h | 1.66 L/kg | 0.616 L/h/kg |  | 0.28
3 | O=C1CCC[C@@H]2[C@H]3CCC[N@+]4(O)CCC[C@@H](CN12)[C@@H]34 | 1.33 h | 0.61 L/kg | 0.46 L/h/kg | 1.69 h | 
4 | O=C(CCCN1CC=C(n2c(=O)[nH]c3ccccc32)CC1)c1ccc(F)cc1 | 2.73 h | 1.41 L/kg | 0.535 L/h/kg | 1.9 h | 
5 | C[C@H]1COc2c(C3(N)CC3)c(F)cc3c(=O)c(C(=O)O)cn1c23 | 2.32 h | 0.68 L/kg | 0.292 L/h/kg | 2.1 h | 0.79
6 | CCN(CC)CCN(Cc1ccc(-c2ccc(C(F)(F)F)cc2)cc1)C(=O)Cn1c(SCc2ccc(F)cc2)nc(=O)c2c1CCC2 | 48.1 h | 11.9 L/kg | 0.247 L/h/kg | 40.9 h | 
7 | CCCNC(C)C(=O)Nc1c(C)csc1C(=O)OC (stereo not drawn) | 1.04 h | 7.7 L/kg | 7.6 L/h/kg | 0.98 h | 0.46
8 | CC(C(O)c1ccc(O)cc1)N1CCC(Cc2ccccc2)CC1 (stereo not drawn) | 4.9 h | 19 L/kg | 3.87 L/h/kg | 4.32 h | 
9 | CN1CCOC(c2ccccc2)c2ccccc2C1 (stereo not drawn) | 8.1 h | 5.6 L/kg | 0.72 L/h/kg | 5 h | 
10 | C=C1C=CC=C(C)[C@H](O)[C@@H](C)[C@@H](O)[C@@H](C)[C@H](OC(C)=O)[C@H](C)[C@@H](OC)/C=C/O[C@@]2(C)Oc3c(C)c(O)c4c(O)c(c5c(c4c3C2=O)NC2(CCN(CC(C)C)CC2)N5)NC1=O | 65 h | 9.3 L/kg | 0.144 L/h/kg | 37 h | 
11 | Cc1cccc([C@H](C)c2c[nH]cn2)c1C | 2.5 h | 1.6 L/kg | 0.66 L/h/kg | 2.2 h | 0.06
12 | CC(C)C(NC(=O)C(C(C)C)N(C)C)C(=O)N(C)C(C(=O)N1CCCC1C(=O)N1CCCC1C(=O)NC(C)(C)C)C(C)C (stereo not drawn) (ξNMe2Val-V[NMeV]PP-NHtBu; configuration not given here) | 0.58 h | 0.33 L/kg | 0.576 L/h/kg | 0.57 h | 
13 | NC(C(=O)NC1C(=O)N2C(C(=O)O)=C(CSc3c[nH]nn3)CS[C@H]12)c1ccc(O)cc1 (stereo partly drawn) | 1.1 h | 0.22 L/kg | 0.198 L/h/kg | 1.2 h | 
14 | NC(=O)N1C(=O)C(C(=O)c2cccs2)c2cc(Cl)ccc21 (stereo not drawn) | 31.6 h | 0.11 L/kg | 0.00348 L/h/kg | 22.7 h | 0.01
15 | N=C(N)NC(=O)Cc1c(Cl)cccc1Cl | 22 h | 5.6 L/kg | 0.27 L/h/kg | 15 h | 
16 | COc1cccc(OC)c1C(=O)NC1C(=O)N2C(C(=O)O)C(C)(C)S[C@H]12 (stereo partly drawn) | 0.8 h | 0.32 L/kg | 0.396 L/h/kg | 0.64 h | 0.43

Row | SMILES | MRT | Vd | clearance | half-life | fraction unbound
17 | CC[C@@]1(O)C(=O)OCc2c1cc1n(c2=O)Cc2c-1nc1cc3c(cc1c2CN1CCN(C)CC1)OCCO3 | 3.5 h | 4.77 L/kg | 1.5 L/h/kg | 3.54 h | 
18 | C=C(Br)C(=O)Nc1cc(C(=O)Nc2cc(C(=O)Nc3cc(C(=O)Nc4cc(C(=O)NCCN=C(N)N)n(C)c4)n(C)c3)n(C)c2)n(C)c1 | 1.2 h | 0.36 L/kg | 0.309 L/h/kg | 8.3 h | 
19 | C=CCN1CCCC1CNC(=O)c1cc2[nH]nnc2cc1OC (stereo not drawn) | 4 h | 1.6 L/kg | 0.396 L/h/kg | 2.8 h | 
20 | O=C(O)CCCCON=C(c1cccnc1)c1cccc(C(F)(F)F)c1 | 6.8 h | 0.43 L/kg | 0.063 L/h/kg | 7.54 h | 0.033
21 | C[C@H]1O[C@@H](n2cc(F)c(=O)[nH]c2=O)[C@H](O)[C@@H]1O | 0.46 h | 0.28 L/kg | 0.66 L/h/kg | 0.35 h | 
22 | O=C(O)CSc1nnc(Br)n1-c1ccc(C2CC2)c2ccccc12 | 3.33 h | 0.29 L/kg | 0.0858 L/h/kg | 5 h | 0.02
23 | C/C=C(/C)C(=O)O[C@H]1[C@H](OC(C)=O)[C@]2(CO)[C@H](O)C[C@]3(C)C(=CC[C@@H]4[C@@]5(C)CC[C@H](O[C@@H]6OC(C(=O)O)[C@@H](O[C@@H]7O[C@H](CO)[C@@H](O)[C@H](O)[C@H]7O)[C@H](O)[C@H]6O[C@@H]6O[C@H](CO)[C@@H](O)[C@H](O)[C@H]6O)[C@](C)(CO)[C@@H]5CC[C@]43C)[C@@H]2CC1(C)C (stereo partly drawn) | 1.5 h | 0.23 L/kg | 0.153 L/h/kg | 1.8 h | 
24 | CCCC=c1ncc(=CC(Cc2cccs2)C(=O)O)n1Cc1ccc(C(=O)O)cc1 (stereo not drawn) | 1.5 h | 0.17 L/kg | 0.114 L/h/kg | 2.1 h | 
25 | COc1cc([S+](C)O)ccc1-c1nc2ncccc2[n-]1 (stereo not drawn) | 1 h | 0.62 L/kg | 0.6 L/h/kg | 0.8 h | 0.41
26 | N=C(N)NC(CS)C(=O)O (stereo not drawn) | 1.39 h | 0.25 L/kg | 0.173 L/h/kg | 1.34 h | 
27 | Cc1c(O)ccc2c1OC[C@@H](c1ccc(O)cc1)[C@H]2c1ccc(O)cc1 | 2.38 h | 1.2 L/kg | 0.505 L/h/kg | 5.3 h | 
28 | CN1C(=O)C(O)C[C@H]1c1cccnc1 (stereo partly drawn) | 7.9 h | 0.85 L/kg | 0.108 L/h/kg | 5.9 h | 
29 | CC(C)=CCC[C@]1(C)C=Cc2c(O)c3c(c(CC=C(C)C)c2O1)O[C@]12C(=CC4C[C@@H]1C(C)(C)O[C@@]2(C/C=C(/C)C(=O)O)C4=O)C3=O | 13.3 h | 0.99 L/kg | 0.0744 L/h/kg | 14.6 h | 
30 | CCC[C@H](Nc1nc(-c2ccc(NC(=O)NCC)c(OC)c2)ncc1C)c1cccnc1 | 2.5 h | 3.41 L/kg | 1.33 L/h/kg | 2.9 h | 
31 | C=C1C[C@@H]2CC[C@@]34C[C@H]5O[C@H]6[C@@H](O3)[C@H]3O[C@H](CC[C@@H]3O[C@H]6[C@H]5O4)CC(=O)O[C@@H]3[C@@H](OC)[C@@H](C[C@H](O)CN)O[C@H]3C[C@H]3O[C@@H](CC[C@@H]1O2)C[C@@H](C)C3=C | 32.5 h | 1.46 L/kg | 0.045 L/h/kg | 37.8 h | 0.43
